These results are taken from article PMC4405350, “From Broad-Spectrum Biocides to Quorum Sensing Disruptors and Mussel Repellents: Antifouling Profile of Alkyl Triphenylphosphonium Salts” (PLoS ONE, 2015).

Data set [1] has as its system V. harveyi BB886 (luxPQ::Tn5kan). Put plainly: Quorum sensing bioassay: bioluminescence. Format: cell-based. The following applies: Vibrio harveyi, 18 h, read-out: IC50 Luminescence BB886. The protocol:
(§1) V. harveyi BB120 (wild type strain), BB170 (luxN::Tn5kan), BB886 (luxPQ::Tn5kan) and BB721 (luxO::Tn5lacZ) were acquired from ATCC. To screen the ability of the compounds to interfere with QS, the test products were serially diluted in 100 μl of Autoinducer Bioassay (AB) medium using white, clear-bottom 96-well microtiter plates (Costar 3610) as assay platform. Aerobic bacterial cultures were incubated overnight (30 °C) and diluted 1:50. One-hundred μl of the diluted cultures were dispensed inside each well in the microtiter plate. That gave a starting cell density of 1–2 x 10^7 cfu ml^-1. The plates were covered with a sterile sealing film. Luminescence and OD600 were monitored every 15 min over 18 h with a multimode plate reader (Perkin-Elmer EnSpire) in order to correlate the effects of the products on both the growth and bioluminescence kinetics.
(§2) Compounds 3–5 and 7 were evaluated in V. harveyi WT and three mutant strains: BB886 (luxPQ::Tn5Kan), unable to detect AI-2; BB170 (luxN::Tn5Kan), unable to detect HAI-1; and BB721 (luxO::Tn5lacZ), a LuxO null mutant that produces maximal luminescence per cell constitutively. In order to take into account the cumulative effects of the compounds, bioluminescence and growth were measured simultaneously every 15 min over 18 h (Fig 7). Accordingly, IC50 values for bacterial luminescence and growth were obtained by integration of the areas under the curves for each tested dose (Table 3). For clarity of the graphs, error bars has been omitted in Fig 7 and only the mean curves are shown.

Data set [2] concerns V. harveyi BB170 (luxN::Tn5kan). Put plainly: Quorum sensing bioassay: bioluminescence. Format: cell-based. The following applies: Vibrio harveyi, 18 h, read-out: IC50 Luminescence BB170. The protocol: as §1, §2
The test system of data set [3] is V. harveyi BB721 (luxO::Tn5lacZ). Kind of data set: Quorum sensing bioassay: bioluminescence. The following applies: Vibrio harveyi, 18 h, read-out: IC50 Luminescence BB721. Format: cell-based. The protocol: as §1, §2
Data set [4] concerns V. harveyi BB120 (wild type strain). Put plainly: Quorum sensing bioassay: bioluminescence. Format: cell-based. The settings on record: Vibrio harveyi, 18 h, read-out: IC50 Luminescence WT. The protocol: as §1, §2
Data set [5] relates to V. harveyi WT and reporter strains. Kind of data set: V. harveyi growth inhibition (OD600). It is filed as cell-based. The following applies: Vibrio harveyi, 18 h, read-out: IC50 Growth. The protocol: as §1, §2
Data set [6] can be described thus: Solubility in water (stock preparation). It is filed as physicochemical. The settings on record: for 40-mM stock. The procedure:
Indeed, the inhibitions observed in violacein production for long alkyl chains (10–18, 20) were clearly correlated to the biocidal effect exerted by these compounds, with ‘therapeutic ratios’ (IC50 for growth inhibition/IC50 for violacein inhibition) around 1, in general (Table 2). Note that, as the length of the hydrocarbon chain becomes shorter, this ratio increased (8–9). […] To evaluate these compounds in further detail, […] stock solutions were prepared […] to avoid the use of high concentrations of DMSO in the bioassays. […] Serial two-fold dilutions (500–3.9 μM) were assayed. Consequently, the highest amount of DMSO used in the assay was 0.25% (v/v). […] Growth inhibitory effects are only observed at 500 μM, particularly for compound 7 (Fig 6D).

The nature of the next data set: in vivo. The settings on record: in vivo. The method in brief: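 Instar I nauplii (15±5 per well) exposed to compound for 24 h at 28 °C under constant light, in triplicate; dead and live counted.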
Data set [7] has as its system Mytilus galloprovincialis. Put plainly: Mussel foot retraction assay. The following applies: for Mussels showing foot retraction: 200 μM, highest test concentration; for EC50: Mytilus galloprovincialis, dripped on the foot, read-out: Concentration required to cause foot repulsion in 50% of mussels. It is filed as in vivo. The protocol: The mussel Mytilus galloprovincialis was used as target organism. Individuals of 4.0–4.5 cm shell length were collected at intertidal rocky shore of the outer Ría de Vigo (NW Spain). Animals were kept in running seawater aquarium tanks with open-flow design for few days and fed daily by pulses with a mixture of the microalgae (Tahitian Isochrysis aff. galbana) and sediment from the seafloor below the mussel rafts.
Mussel foot retracting assay was conducted following the method reported by Hayashi and Miki. Briefly, subsamples of individuals from the maintenance tanks were transferred to containers filled with 1-μm FSW. After 30 min, the posterior adductor muscle (PAM) was cut to open both animal´s valves as shown in S1A Fig, and byssus filaments were removed from their insertion with the soft tissues. Animals were disposed individually on flexible innocuous plasticine basis as a holder still for 15 min in FSW. The latter disposition avoided animal´s manipulation before and after each test solution was dripped directly on the foot of immobilized animals. FSW was removed and animals exposed their internal cavities in dry conditions for the dripping actions but maintaining a humidity layer over soft tissues.
Initially two different controls (negative and positive) were considered. As negative control, 2.5 μl of DMSO in 0.2-μm FSW was used. […] After the negative control test, the animals were disposed back in 1-μm FSW for 15 min. With regard to the positive control, 1000 ppm of CuSO4 was used. For the latter case, only animals that did react to such positive control were used. After this second control, animals were disposed back in 1-μm FSW, this time for 25 min in order to remove completely any rest of copper. All animals considered for the experiment have accomplished the two controls satisfactorily.
Different concentrations (6.25, 12.5, 25, 50, 100 and 200 μM) of two test compounds, 3 and 16 were used. Stocks of 40 mM for the two compounds under investigation were prepared in DMSO. Posterior dilution actions to get the distinct concentrations desired were prepared with 0.2-μm FSW. Concentrations were tested in ascending order from 6.25 to 200 μM. Animals were kept in 0.2-μm FSW for 15 min at each time interval between sampling with the aim to wash the internal soft tissues. After each removal of seawater, animals were ready to use again.
Eight series of ten animals each were considered for retracting muscle foot analysis and each test compound. Each potential foot-reacting substance was individually dripped on the foot of the mussels (S1B Fig) and the animal’s reactions were noted. […]

Data set [8] deals with Mushroom tyrosinase (EC 1.14.18.1) (Agaricus bisporus, UniProt C7FF04). Kind of data set: Tyrosinase inhibition assay (L-Dopa, dopachrome at 475 nm). Format: biochemical. The settings on record: 15 and 30 μM inhibitor.
Description: Tyrosinase inhibition assays were conducted as described in [52] with slight modifications. First, in order to characterize the Michaelis-Menten parameters of the enzyme kinetics, 100 μl of a mushroom tyrosinase solution (25 U) in sodium phosphate buffer (50 mM, pH 6.5) were pipetted in each well of a flat-bottom microtiter plate (Nunc 167008). Two-fold dilutions of L-Dopa, from 4.8 to 0.075 mM (final concentrations) were mixed (100 μl) with the enzyme solution. The enzymatic reaction was followed by measuring the absorbance at 475 nm every 30 s over 15 min, with shaking (150 rpm) between measurements. Temperature was kept constant at 30 °C. The values of KM and vmax under these conditions were obtained from Lineweaver-Burk plots. For tyrosinase inhibition assays, each well of the microtiter plate was filled with 100 μl of a mushroom tyrosinase solution and the appropriate amount of the test substance dissolved in DMSO. The compounds were pre-incubated with the enzyme at 30 °C for 10 min. Subsequently, the enzymatic reaction was triggered by addition of 100 μl of L-Dopa (1.2 mM test concentration). Formation of dopachrome was followed by measuring the absorbance at 475 nm as described above.
On the set-up of data set [9]: method as in earlier work. The settings on record: cited from earlier work.

SMILES strings stand for the structures.

Sequence of Mushroom tyrosinase (EC 1.14.18.1) (G1K3P4 entry or part of it): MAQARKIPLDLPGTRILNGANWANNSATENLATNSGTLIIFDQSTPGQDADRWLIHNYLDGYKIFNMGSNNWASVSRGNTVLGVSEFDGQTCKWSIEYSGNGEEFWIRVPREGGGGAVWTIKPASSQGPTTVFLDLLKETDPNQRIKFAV
Sequence of Mushroom tyrosinase (EC 1.14.18.1) (C7FF04 1-392): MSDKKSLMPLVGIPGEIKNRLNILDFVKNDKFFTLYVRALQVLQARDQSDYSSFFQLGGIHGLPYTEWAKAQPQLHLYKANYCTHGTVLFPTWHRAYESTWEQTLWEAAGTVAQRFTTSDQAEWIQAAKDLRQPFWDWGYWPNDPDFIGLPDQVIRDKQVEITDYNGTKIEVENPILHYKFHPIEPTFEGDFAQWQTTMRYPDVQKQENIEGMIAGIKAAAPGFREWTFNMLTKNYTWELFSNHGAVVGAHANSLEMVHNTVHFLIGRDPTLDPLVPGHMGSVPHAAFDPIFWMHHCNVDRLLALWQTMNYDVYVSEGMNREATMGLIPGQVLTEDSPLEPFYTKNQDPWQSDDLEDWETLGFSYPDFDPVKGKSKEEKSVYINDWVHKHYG

Take `CCCCC[P+](c1ccccc1)(c1ccccc1)c1ccccc1` [Compound 7]: the IC50 (commonly the point on the concentration scale where inhibition reaches its midpoint) was 179 µM in data set [1]; 129 µM in data set [2]; 276 µM in [3]; 205 µM in data set [4]; above 500 µM in [5]. Besides, the Solubility in water entry in data set [6] is recorded as “poor solubility in water”.

Turning to `CCCCCCCCCCCCCCCCCC[P+](c1ccccc1)(c1ccccc1)c1ccccc1` [Compound 17], the LC50 (commonly the concentration lethal to half of the exposed cells or organisms) at 24 h in the data set “in vivo” is below 0.5 µM.

`CCCCCCCCCCCCCCCCCCC[P+](c1ccccc1)(c1ccccc1)c1ccccc1` [Compound 18]: the LC50 at 24 h in the data set “in vivo” is below 0.5 µM.

On to `CCCCN[P+](c1ccccc1)(c1ccccc1)c1ccccc1` [Compound 5], for which the 50% inhibitory concentration (IC50) in [1], in [2], in data set [3], in data set [4] and in data set [5] was above 500 µM in each case.

As to `CCCCCCCCCCCCCCCC[P+](c1ccccc1)(c1ccccc1)c1ccccc1` [Compound 16], in [7], the “Mussels showing foot retraction” value is 94–95% and the EC50 stood at 34 µM. In addition, in [8], the “Type of tyrosinase inhibition (Lineweaver-Burk plots)” value is “non-competitive inhibition”. Further, in [9], the cmc threshold entry is given as “around 100 μM”.

For `C/C=C/C[P+](c1ccccc1)(c1ccccc1)c1ccccc1` [Compound 3], in [7], the “Mussels showing foot retraction” value is listed as 94–95%. For the same molecule, in data set [7], the EC50 was 47 µM. Moreover, the IC50 in [1] was 265 µM; in [2] it was 251 µM; in data set [3], 348 µM; in data set [4], 297 µM; in [5] it was above 500 µM.

Regarding `BrCCCC[P+](c1ccccc1)(c1ccccc1)c1ccccc1` [Compound 4], the IC50 in data set [1] was 307 µM; in [2], 226 µM; in data set [3] it was above 500 µM; in [4], above 500 µM; in data set [5], above 500 µM.
